# Data as given in US10233161B2, “Pharmaceutical compositions and salts of a 1,2,4-oxadiazole benzoic acid” (PTC Therapeutics, Inc., priority 2014, dated 2019).
# What was measured:
# [1] = Comparative equilibrium solubility study of micronized and non-micronized Compound 1; format: physicochemical; settings: for Concentration of Compound 1 in 0.1N HCl + 0.5% SLS: pH 1; for Concentration of Compound 1 in PBS: pH 7.4
# Method: Objective: The purpose of this study was to evaluate the solubility of micronized and non-micronized Compound 1. The solubility study was conducted in two representative media in pH 1 (0.1 N HCl with 0.5% sodium lauryl sulfate) and in pH 7.4 (0.1M phosphate buffered saline). The experiment further compared the initial rate of dissolution and equilibrium solubilities of micronized and non-micronized Compound 1 over a period of time.
# Solubility measurement procedure comprised the steps of: 1) weighing and mixing approximately 100 mg of micronized Compound 1 and 100 mL of 0.1N HCl with 0.5% SLS into amber jar 1; 2) weighing and mixing approximately 100 mg of micronized Compound 1 and 100 mL of PBS into amber jar 2; 3) weighing and mixing approximately 100 mg of non-micronized Compound 1 and 100 mL of 0.1N HCl with 0.5% SLS into amber jar 3; 4) weighing and mixing approximately 100 mg of non-micronized Compound 1 and 100 mL of PBS into amber jar 4; 5) mixing all samples in their respective amber jars using a multi purpose rotator for 2 hours; 4) sampling at 5 minutes, 10 minutes, 30 minutes, 60 minutes, 90 minutes, 120 minutes; 5) filtering the samples and 6) analyzing the filtrates using HPLC. For each time point, 10 mL of sample was drawn using a 10 mL syringe with a needle attached filter and using a syringe-top 0.45 μm PTFE syringe filter. The first 9 mL of the samples collected were put back into the original amber jar and then remaining 1 mL was transferred to HPLC vial for analysis.
# [2] = Quantitative whole body autoradiography, Long Evans rats; format: in vivo; settings: 50 mg/kg single oral
# Method: (§1) Two studies were performed to evaluate the concentrations of Compound 1/metabolites in various tissues, including the eyes, following a single dose administration of radiolabeled Compound 1 (^14C-3-[5-(2-fluoro-phenyl)-[1,2,4]oxadiazol-3-yl]benzoic acid) to Sprague Dawley and Long Evans rats.
# Long Evans rats: In a quantitative whole body autoradiography (QWBA) study, 8 male Long Evans rats (partially pigmented) obtained from Harlan were administered a single oral gavage dose of 50 mg/kg ^14C-Compound 1.
# Animals were individually housed and certified rodent diet and water were provided ad libitum. Animals were acclimated for 3 days prior to dose administration. Environmental controls for the animal room were set to maintain a temperature of 18 to 26° C., a relative humidity of 50±20%, and a 12-hour light/12-hour dark cycle. As necessary, the 12-hour dark cycle was interrupted to accommodate study procedures. Animals were fasted overnight through 4 hours postdose on the day of dosing. At dosing, the animals weighed 160 to 178 g and were approximately 7 weeks of age. One animal/time point was sacrificed via exsanguination (cardiac puncture) under isoflurane anesthesia at 0.5, 1, 2, 4, 8, 24, 72, and 168 hours postdose.
# [3] = Quantitative whole body autoradiography, Sprague Dawley rats; format: in vivo; settings: 1 hr, 50 mg/kg single oral
# Method: as §1
# Sprague Dawley rats: As part of a quantitative whole body autoradiography (QWBA) study, 4 male and 4 female Sprague Dawley rats (albino) obtained from Charles River were administered a single oral gavage dose of 50 mg/kg ^14C-3-[5-(2-fluoro-phenyl)-[1,2,4]oxadiazol-3-yl]benzoic acid.
# Animals were individually housed and certified rodent diet and water were provided ad libitum. Animals were acclimated for 8 days prior to dose administration. Environmental controls for the animal room were set to maintain a temperature of 18 to 26° C., a relative humidity of 50±20%, and a 12-hour light/12-hour dark cycle. The 12-hour dark cycle may have been interrupted to accommodate study procedures. Animals were fasted overnight through 4 hours postdose on the day of dosing. At dosing, the animals weighed 204 to 260 g and were approximately 9 to 11 weeks of age. […] The concentrations of ^14C-3-[5-(2-fluoro-phenyl)-[1,2,4]oxadiazol-3-yl]benzoic acid in the eye and related tissues are shown in the following table.
molecule,measurement,setting,value
O=C(O)c1cccc(-c2noc(-c3ccccc3F)n2)c1 [Micronized Compound 1],Concentration of Compound 1 in 0.1N HCl + 0.5% SLS,[1]; 5 minutes,6.85 µg/mL
same,Concentration of Compound 1 in 0.1N HCl + 0.5% SLS,[1]; 10 minutes,6.81 µg/mL
same,Concentration of Compound 1 in 0.1N HCl + 0.5% SLS,[1]; 30 minutes,6.83 µg/mL
same,Concentration of Compound 1 in 0.1N HCl + 0.5% SLS,[1]; 60 minutes,7.04 µg/mL
same,Concentration of Compound 1 in 0.1N HCl + 0.5% SLS,[1]; 90 minutes,6.88 µg/mL
same,Concentration of Compound 1 in 0.1N HCl + 0.5% SLS,[1]; 120 minutes,7.18 µg/mL
same,Concentration of Compound 1 in PBS,[1]; 5 minutes,189.13 µg/mL
same,Concentration of Compound 1 in PBS,[1]; 10 minutes,191.45 µg/mL
same,Concentration of Compound 1 in PBS,[1]; 30 minutes,197.59 µg/mL
same,Concentration of Compound 1 in PBS,[1]; 60 minutes,199.95 µg/mL
same,Concentration of Compound 1 in PBS,[1]; 90 minutes,200.29 µg/mL
same,Concentration of Compound 1 in PBS,[1]; 120 minutes,203.08 µg/mL
O=C(O)c1cccc(-c2noc(-c3ccccc3F)n2)c1 [Non-Micronized Compound 1],Concentration of Compound 1 in 0.1N HCl + 0.5% SLS,[1]; 5 minutes,6.24 µg/mL
same,Concentration of Compound 1 in 0.1N HCl + 0.5% SLS,[1]; 10 minutes,6.38 µg/mL
same,Concentration of Compound 1 in 0.1N HCl + 0.5% SLS,[1]; 30 minutes,6.87 µg/mL
same,Concentration of Compound 1 in 0.1N HCl + 0.5% SLS,[1]; 60 minutes,6.99 µg/mL
same,Concentration of Compound 1 in 0.1N HCl + 0.5% SLS,[1]; 90 minutes,6.97 µg/mL
same,Concentration of Compound 1 in 0.1N HCl + 0.5% SLS,[1]; 120 minutes,7.04 µg/mL
same,Concentration of Compound 1 in PBS,[1]; 5 minutes,141.89 µg/mL
same,Concentration of Compound 1 in PBS,[1]; 10 minutes,152.59 µg/mL
same,Concentration of Compound 1 in PBS,[1]; 30 minutes,176.92 µg/mL
same,Concentration of Compound 1 in PBS,[1]; 60 minutes,185.18 µg/mL
same,Concentration of Compound 1 in PBS,[1]; 90 minutes,194.06 µg/mL
same,Concentration of Compound 1 in PBS,[1]; 120 minutes,196.54 µg/mL
"^14C-3-[5-(2-fluoro-phenyl)-[1,2,4]oxadiazol-3-yl]benzoic acid",Concentrations of radioactivity,"[2]; Exorbital lacrimal gland, 0.5 hr",28.0 µg/g
same,Concentrations of radioactivity,"[2]; Exorbital lacrimal gland, 1 hr",7.59 µg/g
same,Concentrations of radioactivity,"[2]; Exorbital lacrimal gland, 2 hr",22.4 µg/g
same,Concentrations of radioactivity,"[2]; Exorbital lacrimal gland, 4 hr",10.2 µg/g
same,Concentrations of radioactivity,"[2]; Exorbital lacrimal gland, 8 hr",8.09 µg/g
same,Concentrations of radioactivity,"[2]; Exorbital lacrimal gland, 24 hr","BLQ (BLQ = below the limit of quantitation (<0.457 μg equivalents ^14C-3-[5-(2-fluoro-phenyl)-[1,2,4]oxadiazol-3-yl]benzoic acid))"
same,Concentrations of radioactivity,"[2]; Exorbital lacrimal gland, 72 hr","BLQ (BLQ = below the limit of quantitation (<0.457 μg equivalents ^14C-3-[5-(2-fluoro-phenyl)-[1,2,4]oxadiazol-3-yl]benzoic acid))"
same,Concentrations of radioactivity,"[2]; Eye (lens), 0.5 hr","BLQ (BLQ = below the limit of quantitation (<0.457 μg equivalents ^14C-3-[5-(2-fluoro-phenyl)-[1,2,4]oxadiazol-3-yl]benzoic acid))"
same,Concentrations of radioactivity,"[2]; Eye (lens), 1 hr","BLQ (BLQ = below the limit of quantitation (<0.457 μg equivalents ^14C-3-[5-(2-fluoro-phenyl)-[1,2,4]oxadiazol-3-yl]benzoic acid))"
same,Concentrations of radioactivity,"[2]; Eye (lens), 2 hr","BLQ (BLQ = below the limit of quantitation (<0.457 μg equivalents ^14C-3-[5-(2-fluoro-phenyl)-[1,2,4]oxadiazol-3-yl]benzoic acid))"
same,Concentrations of radioactivity,"[2]; Eye (lens), 4 hr","BLQ (BLQ = below the limit of quantitation (<0.457 μg equivalents ^14C-3-[5-(2-fluoro-phenyl)-[1,2,4]oxadiazol-3-yl]benzoic acid))"
same,Concentrations of radioactivity,"[2]; Eye (lens), 8 hr","BLQ (BLQ = below the limit of quantitation (<0.457 μg equivalents ^14C-3-[5-(2-fluoro-phenyl)-[1,2,4]oxadiazol-3-yl]benzoic acid))"
same,Concentrations of radioactivity,"[2]; Eye (lens), 24 hr","BLQ (BLQ = below the limit of quantitation (<0.457 μg equivalents ^14C-3-[5-(2-fluoro-phenyl)-[1,2,4]oxadiazol-3-yl]benzoic acid))"
same,Concentrations of radioactivity,"[2]; Eye, 0.5 hr",4.59 µg/g
same,Concentrations of radioactivity,"[2]; Eye, 1 hr",1.78 µg/g
same,Concentrations of radioactivity,"[2]; Eye, 2 hr",3.62 µg/g
same,Concentrations of radioactivity,"[2]; Eye, 4 hr",2.69 µg/g
same,Concentrations of radioactivity,"[2]; Eye, 8 hr",2.08 µg/g
same,Concentrations of radioactivity,"[2]; Eye, 24 hr","BLQ (BLQ = below the limit of quantitation (<0.457 μg equivalents ^14C-3-[5-(2-fluoro-phenyl)-[1,2,4]oxadiazol-3-yl]benzoic acid))"
same,Concentrations of radioactivity,"[2]; Hardenian gland, 0.5 hr",46.8 µg/g
same,Concentrations of radioactivity,"[2]; Hardenian gland, 1 hr",16.0 µg/g
same,Concentrations of radioactivity,"[2]; Hardenian gland, 2 hr",38.2 µg/g
same,Concentrations of radioactivity,"[2]; Hardenian gland, 4 hr",18.1 µg/g
same,Concentrations of radioactivity,"[2]; Hardenian gland, 8 hr",13.0 µg/g
same,Concentrations of radioactivity,"[2]; Hardenian gland, 24 hr",1.59 µg/g
same,Concentrations of radioactivity,"[2]; Intra-orbital lacrimal gland, 0.5 hr",28.8 µg/g
same,Concentrations of radioactivity,"[2]; Intra-orbital lacrimal gland, 1 hr",10.3 µg/g
same,Concentrations of radioactivity,"[2]; Intra-orbital lacrimal gland, 2 hr",25.2 µg/g
same,Concentrations of radioactivity,"[2]; Intra-orbital lacrimal gland, 4 hr",11.7 µg/g
same,Concentrations of radioactivity,"[2]; Intra-orbital lacrimal gland, 8 hr",10.3 µg/g
same,Concentrations of radioactivity,"[2]; Intra-orbital lacrimal gland, 24 hr","BLQ (BLQ = below the limit of quantitation (<0.457 μg equivalents ^14C-3-[5-(2-fluoro-phenyl)-[1,2,4]oxadiazol-3-yl]benzoic acid))"
same,Concentrations of radioactivity,"[2]; Uveal tract, 0.5 hr",20.6 µg/g
same,Concentrations of radioactivity,"[2]; Uveal tract, 1 hr",10.4 µg/g
same,Concentrations of radioactivity,"[2]; Uveal tract, 2 hr",18.1 µg/g
same,Concentrations of radioactivity,"[2]; Uveal tract, 4 hr",6.09 µg/g
same,Concentrations of radioactivity,"[2]; Uveal tract, 8 hr",11.6 µg/g
same,Concentrations of radioactivity,"[2]; Uveal tract, 24 hr","BLQ (BLQ = below the limit of quantitation (<0.457 μg equivalents ^14C-3-[5-(2-fluoro-phenyl)-[1,2,4]oxadiazol-3-yl]benzoic acid))"
same,Concentrations of radioactivity,"[3]; Female, Exorbital lacrimal gland",10.3 µg/g
same,Concentrations of radioactivity,"[3]; Female, Harderian gland",18.7 µg/g
same,Concentrations of radioactivity,"[3]; Female, Intra-orbital lacrimal gland",10.2 µg/g
same,Concentrations of radioactivity,"[3]; Female, matrix cell blank (first line)",1.41 µg/g
same,Concentrations of radioactivity,"[3]; Male, Exorbital lacrimal gland",21.1 µg/g
same,Concentrations of radioactivity,"[3]; Male, Eye",3.39 µg/g
same,Concentrations of radioactivity,"[3]; Male, Harderian gland",21.6 µg/g
same,Concentrations of radioactivity,"[3]; Male, Intra-orbital lacrimal gland",21.8 µg/g
